The term inhibition denotes the change of the read-out against control, counted positive when it falls. What is called IC50 is the point on the concentration scale where inhibition reaches its midpoint. A high value points to lower potency. In general, LD50 refers to the dose expected to kill half of the subjects tested. Higher therefore signals lower toxicity.

For seven molecules, inhibition, IC50 and LD50 results are on record in ChEMBL document CHEMBL4828748, “Design, synthesis, and pharmacological evaluation of sinomenine derivatives on rings A and C: Novel compounds screening for aplastic anemia targeting on cytotoxic T lymphocyte” (Eur J Med Chem, 2021).

The structures appear in SMILES notation.

Data set [1] in a line: Cytotoxicity against C57BL/6J mouse peritoneal macrophages assessed as reduction of cell viability at 10 uM incubated for 24 hrs in presence of LPS by MTT assay. The data set is classed as cell-based, Peritoneal macrophage.
Data set [2] concerns Peritoneal macrophage. The data set can be described thus: Inhibition of LPS-induced NO production in C57BL/6J mouse peritoneal macrophages at 10 uM measured after 24 hrs in presence of LPS by Griess reagent based assay relative to control. It counts as functional. Background: The Griess reaction detects nitrite, a stable product of nitric oxide.
A short description of data set [3]: Inhibition of mouse CTLL-2 cells activity at 10 uM incubated for 24 hrs. The data set is classed as functional.
Data set [4] can be described thus: Inhibition of mouse CTLL-2 cells activity incubated for 24 hrs. It counts as functional, cell-based.
The nature of data set [5]: Acute toxicity in po dosed Kunming mouse. The data set is classed as organism-based. The settings on record: in vivo.
Data set [6] concerns Peritoneal macrophage. The experiment in a line: Inhibition of LPS-induced NO production in C57BL/6J mouse peritoneal macrophages at 1 uM measured after 24 hrs in presence of LPS by Griess reagent based assay relative to control. The data set is classed as functional.
Data set [7] is described as follows: Cytotoxicity against C57BL/6J mouse peritoneal macrophages assessed as reduction of cell viability at 1 uM incubated for 24 hrs in presence of LPS by MTT assay. It counts as cell-based, Peritoneal macrophage. (In general: Tetrazolium assays rely on reduction of a dye to a coloured formazan, in cell work by metabolically active cells.)

Take `CCCCCCCCCCCCCC(=O)Oc1c(OC)ccc2c1[C@@]13CCN(C)[C@@H](C2)[C@H]1C=C(OC)C(=O)C3`: the inhibition at 24 h, 10 µM in data set [1] was 2.7%. Moreover, the figures for the inhibition at 10 µM (with Peritoneal macrophage [2]; in data set [3]) were 4.3% and 88.1%, respectively. The same molecule displayed an IC50 in data set [4] of 4.3 µM.
Turning to `CCCCCCCCCCCCCC(=O)Oc1c(OC)ccc2c1[C@@]13CCN(C)[C@@H](C2)[C@H]1C[C@@H](OC)C(=O)C3`, the inhibition at 24 h, 10 µM in data set [1] was found to be 4.6%. In addition, the inhibition at 10 µM amounted to 46.2% in the data set with Peritoneal macrophage [2] and 98.3% in data set [3]. The molecule also showed an IC50 in data set [4] of 6.7 µM.
`COC1=C[C@@H]2[C@@H]3Cc4ccc(OC)c(O)c4[C@]2(CCN3C)CC1=O` [SINOMENINE]: the inhibition at 24 h, 10 µM in data set [1] came out at 1.3%. In addition, the results for the inhibition at 10 µM (in the data set with Peritoneal macrophage [2]; in data set [3]) were 7.5% and 2.8%, respectively. The same molecule returned an LD50 in data set [5] of 1100 mg/kg.
For the molecule `CCCCCCCCCCCC(=O)Oc1c(OC)ccc2c1[C@@]13CCN(C)[C@@H](C2)[C@H]1C=C(OC)C(=O)C3`, the inhibition at 24 h, 10 µM in data set [1] was 4.4%. In addition, the figures for the inhibition at 10 µM (with Peritoneal macrophage [2]; in data set [3]) were 42.7% and 98.7%, respectively. The molecule further came in with an IC50 in data set [4] of 3.8 µM.
Regarding `CCCCCCCCCCCCCC(=O)Oc1c(OC)cc(C=O)c2c1[C@@]13CCN(C)[C@@H](C2)[C@H]1C=C(OC)C(=O)C3`, the inhibition at 24 h, 10 µM in data set [1] was 0.5%. For the same molecule, the inhibition at 10 µM in the data set on Peritoneal macrophage [2] is 33.9%; in data set [3] it was 90.8%. For the same molecule, the IC50 in data set [4] was 3.7 µM.
For the molecule `C[C@@H]1C[C@H]2[C@@H]3CCC4=CC(=O)C=C[C@]4(C)[C@@]3(F)[C@@H](O)C[C@]2(C)[C@@]1(O)C(=O)CO` [DEXAMETHASONE], the inhibition at 1 µM in the data set on Peritoneal macrophage [6] is 62.8%. In data set [7], the inhibition at 24 h, 1 µM stood at 17%.
As for `CCCCCCCCCCCC(=O)Oc1c(OC)ccc2c1[C@@]13CCN(C)[C@@H](C2)[C@H]1C[C@@H](OC)C(=O)C3`, the inhibition at 24 h, 10 µM in data set [1] was determined as 3.1%. The inhibition at 10 µM in the data set on Peritoneal macrophage [2] is 5%; in data set [3] it was 96.7%. Besides, the half-inhibitory concentration (IC50) in data set [4] stood at 4.4 µM.
